Values joined by “and” are separate entries in the source; they are usually repeats but may differ in a detail not shown here. Identical values can stand only once.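 1) Cells in 96-well plates. 2) Compound, 48 h, 5 concentrations. 3) Linear interpolation between surrounding doses. 4) Unreached endpoint = highest concentration. The concentration for 50% growth inhibition is given as GI50. TGI: total growth inhibition.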
Tests used:
Assay in all cases: DTP human tumour cell line panel, 48 h
[1] = system: A498 renal
[2] = system: BT-549 breast
[3] = system: HCC-2998 colon
[4] = system: HOP-62 NSCLC
[5] = system: HOP-92 NSCLC
[6] = system: M14 melanoma
[7] = system: MDA-MB-231 breast
[8] = system: RXF 393 renal
[9] = system: SNB-19 CNS
[10] = system: UACC-257 melanoma

SMILES	GI50 [1]	TGI [1]	GI50 [2] [µM]	TGI [2]	GI50 [3]	TGI [3]	GI50 [4]	TGI [4]	GI50 [5] [µM]	TGI [5]	GI50 [6]	TGI [6]	GI50 [7] [µM]	TGI [7]	GI50 [8]	TGI [8]	GI50 [9] [µM]	TGI [9]	GI50 [10] [µM]	TGI [10]
CSc1n(Cc2ccc3ccccc3c2)c(C)c[n+]1Cc1ccc2ccccc2c1	1.13 µM	2.93 µM	0.569	1.81 µM	0.535 µM	1.82 µM	1.39 µM	3.01 µM	0.255	1.28 µM	0.608 µM	2.08 µM	0.484	1.74 µM	938 nM	2.47 µM	0.51	1.72 µM	0.325	1.12 µM
CCn1c2ccc(C(=O)CCCN(C)C)cc2c2cc(C(=O)CCCN(C)C)ccc21	–	4.51 µM	–	12.4 µM	–	6.05 µM	–	3.48 µM	–	9.24 µM	–	5.1 µM	–	3.37 µM	–	4.3 µM	–	9.31 µM	–	14 µM
Cc1ccc(C(=O)N2CCN(C(=O)c3ccc(C)cc3)c3ccccc32)cc1	–	> 74.1 µM	–	> 100 µM	–	40.9 µM	–	> 100 µM	–	> 61.2 µM	–	> 100 µM	–	> 100 µM	–	8.43 µM	–	> 100 µM	–	> 100 µM
CCCCOC(=O)c1ccc(NC(=O)CCl)cc1	14.1 µM	28.6 µM	2.2	7.7 µM	15.6 µM	32.7 µM	1.99 µM	3.96 µM	1.93	3.65 µM	3.07 µM	12.7 µM	1.63	3.26 µM	1550 nM	3.19 µM	1.62	3.22 µM	3.05	8.66 µM
Cn1c(/C=C(\C#N)c2cccc(C(F)(F)F)c2)nc2c(N3CCOCC3)nc(Cl)nc21	1.38 µM	2.72 µM	0.569	1.96 µM	1.67 µM	3.2 µM	1.45 µM	3.2 µM	0.342	1.89 µM	0.733 µM	2.08 µM	1.05	2.3 µM	613 nM	1.93 µM	1.44	2.8 µM	1.37	2.89 µM
Nc1nc2ccc3[nH]ncc3c2c2c1CCCC2	1.64 µM	3.49 µM	1.38	3.34 µM	1.61 µM	3.62 µM	1.99 µM	6.77 µM	2.09	7.79 µM	1.53 µM	3.23 µM	2.74	8.45 µM	399 nM	1.77 µM	2.64	10.8 µM	3.28	11.6 µM
COc1cc2c(cc1OC)C(CC1(O)CCCCC1)N(S(=O)(=O)c1ccc(C)cc1)CC2 (stereo not given)	> 10 µM	> 10 µM	> 10	> 10 µM	> 10 µM	> 10 µM	> 10 µM	> 10 µM	> 10	> 10 µM	> 10 µM	> 10 µM	> 10	> 10 µM	> 10000 nM	> 10 µM	> 10	> 10 µM	> 10	> 10 µM
COc1c2c(c(CC=C(C)C)c3oc(=O)c(-c4ccc(O)cc4)c(O)c13)OC(C)(C)C=C2	–	> 100 µM	–	> 100 µM	–	48.1 µM	–	86.2 µM	–	58.7 µM	–	73.3 µM	–	65 µM	–	12.4 µM	–	> 100 µM	–	> 100 µM
COc1cc(F)cc([C@@H](CO)NC(=O)[C@@H](C)N2Cc3ccc(-c4nc(NC5CCOCC5)ncc4Cl)cc3C2=O)c1	0.0878 µM	5.86 µM	5.43	24.3 µM	0.0125 µM	57.5 µM	0.0519 µM	> 86.2 µM	0.0321	0.26 µM	< 0.01 µM	0.962 µM	< 0.0175	18.7 µM	205 nM	19.8 µM	1.73	> 100 µM	< 0.01	0.0367 µM
CC(=O)OC1CC[C@@]2(C)C(CC[C@]3(C)C2CC=C2[C@@H]4CC(C)(C)CCC4(C)CCC23C)[C@@]1(C)C(=O)O (stereo not given in full)	–	39.3 µM	–	50.1 µM	–	35.8 µM	–	42 µM	–	49.9 µM	–	46.5 µM	–	44.2 µM	–	36.9 µM	–	47.3 µM	–	43.3 µM
Clc1cccc(N2CCN(CCN3CCc4c([nH]c5ccccc45)C3c3cccnc3)CC2)c1 (stereo not given)	–	> 100 µM	–	> 100 µM	–	> 76.9 µM	–	> 86.8 µM	–	> 86.3 µM	–	> 100 µM	–	> 100 µM	–	> 100 µM	–	> 100 µM	–	> 100 µM
COc1ccc(-c2nn(-c3cccc(Cl)c3)cc2-c2c(C#N)c(=O)n3[nH]c(-c4ccc(C)cc4)nc3c2C#N)cc1	0.575 µM	7.63 µM	3.79	14.8 µM	5.04 µM	10.8 µM	0.884 µM	2.19 µM	0.723	4.88 µM	1.66 µM	6.67 µM	1.16	5.25 µM	858 nM	2.48 µM	2.17	18.2 µM	6.68	16.7 µM
Clc1ccc(C(c2ccc(Cl)cc2)N2CCNCC2)cc1	–	4.2 µM	–	38.3 µM	–	3.05 µM	–	3.71 µM	–	10.6 µM	–	3.39 µM	–	4.4 µM	–	9.75 µM	–	21.3 µM	–	4.62 µM
O=C(Nc1ccc2[nH]c(C(=O)N3CC(CCl)c4c3cc([N+](=O)[O-])c3ccccc43)cc2c1)c1cc2ccccc2o1 (stereo not given)	> 1100 µM	> 1100 µM	> 1100	> 1100 µM	57.7 µM	> 1100 µM	> 1100 µM	> 1100 µM	> 1100	> 1100 µM	> 1100 µM	> 1100 µM	> 1100	> 1100 µM	–	> 1100 µM	> 1100	> 1100 µM	> 1100	> 1100 µM
CN[C@@H]1C[C@H]2O[C@@](C)([C@@H]1OC)n1c3ccccc3c3c4c(c5c6ccccc6n2c5c31)C(=O)N[C@H]4O	0.0053 µM	0.0203 µM	0.0683	0.617 µM	0.0722 µM	0.974 µM	0.0187 µM	0.766 µM	0.00753	0.0613 µM	–	> 3.69 µM	0.0227	0.509 µM	–	0.0534 µM	0.0958	0.722 µM	0.0794	2.57 µM
C[n+]1c2ccccc2c(Nc2ccc(NS(=O)(=O)CCCCN=C(N)N)cc2)c2ccc(N)cc21	0.32 µM	31.4 µM	35.2	> 100 µM	8.97 µM	> 100 µM	0.217 µM	26.6 µM	1.92	52.9 µM	4.14 µM	> 100 µM	43.6	> 100 µM	15700 nM	> 70.8 µM	0.444	> 100 µM	21.7	> 95.6 µM
COc1ccc2c(c1)c1nc3cc(C)c(C)cc3nc1n2CCN(C)C	1.25 µM	2.58 µM	1.7	3.49 µM	1.07 µM	2.58 µM	0.899 µM	3.37 µM	0.308	2.12 µM	1.1 µM	2.57 µM	1.17	2.76 µM	1220 nM	2.88 µM	0.678	2.32 µM	1.26	3.17 µM
COc1ccc2c3c(c4ccccc4cc13)C(=O)N(CCN(C)CCN)C2=O	0.393 µM	1.73 µM	0.329	1.84 µM	0.182 µM	1.65 µM	0.0267 µM	0.264 µM	0.114	0.896 µM	0.0599 µM	1.32 µM	0.518	1.94 µM	259 nM	1.29 µM	0.0692	1.27 µM	0.483	17.4 µM
O=CC(Br)C(Br)c1ccccc1 (stereo not given)	13.9 µM	29.5 µM	2.77	8.47 µM	15.1 µM	29.4 µM	13.3 µM	27.8 µM	1.52	2.89 µM	2 µM	4.88 µM	2.01	4.22 µM	1820 nM	3.78 µM	12.8	26.2 µM	1.9	4.56 µM
Oc1ccc2ccccc2c1C1NN=C(c2ccccc2)S1 (stereo not given)	1.34 µM	14.1 µM	0.858	28.9 µM	0.353 µM	16.6 µM	0.454 µM	31.7 µM	0.244	12.2 µM	0.279 µM	0.819 µM	0.621	35.7 µM	812 nM	20 µM	0.683	> 100 µM	0.561	12 µM
COc1ccc([I+]c2ccccc2)cc1	1.9 µM	> 93.2 µM	4.12	> 78.8 µM	10 µM	> 100 µM	2.91 µM	79.2 µM	6.55	81.9 µM	9.09 µM	> 100 µM	> 78.2	> 100 µM	13900 nM	> 100 µM	11.3	> 100 µM	8.81	> 100 µM
O=C1NC(=O)C(c2ccc(Cl)cc2)=C1Nc1ccc(Cl)c(C(=O)O)c1	> 25 µM	> 25 µM	> 25	> 25 µM	> 25 µM	> 25 µM	> 25 µM	> 25 µM	> 25	> 25 µM	> 25 µM	> 25 µM	> 25	> 25 µM	> 25000 nM	> 25 µM	> 25	> 25 µM	> 25	> 25 µM
OC(C1CO1)C(O)C1CO1 (stereo not given)	116 µM	134 µM and 263 µM	29.5	84.7 µM and 299 µM	60.5 µM	87.9 µM and 138 µM	8.57 µM	36.5 µM and 99.7 µM	56.1	146 µM and 219 µM	28.7 µM	94.6 µM and 165 µM	63	69.6 µM and 377 µM	71400 nM	139 µM and 231 µM	107	139 µM and 334 µM	56.1	141 µM and 244 µM
O=C(O)c1ccc2c3c(ncnc13)-c1ccccc1C2=O	1.96 µM	10.9 µM	2.51	> 29.9 µM	8.52 µM	> 100 µM	1.76 µM	3.75 µM	> 100	> 100 µM	1.35 µM	3.05 µM	> 100	> 100 µM	> 47200 nM	> 100 µM	3.52	> 100 µM	8.6	> 100 µM
CCOC(=O)NC1=C(N2CC2)C(=O)C(NC(=O)OCC)=C(N2CC2)C1=O	8.08 µM and 5.41 µM	20.3 µM and 9.75 µM and 12.5 µM	–	25 µM	20 µM and 10.3 µM	25 µM and 23.2 µM and 35 µM	1.56 µM and 1.75 µM	15.1 µM and 7.44 µM and 2.9 µM	6.18	16.1 µM and 11.2 µM and 10.1 µM	4.91 µM and 4.5 µM	25 µM and 23.7 µM and 31.7 µM	–	15.3 µM	13000 nM and 5740 nM	25 µM and 14.4 µM and 12.9 µM	6.66	25 µM and 30.2 µM	6.96	25 µM and 19.9 µM
Fc1cccc(CSc2ncnc3c2ncn3C2CCCS2)c1 (stereo not given)	–	41.8 µM	–	79.5 µM	–	42.2 µM	–	40.3 µM	–	67.4 µM	–	33.7 µM	–	> 100 µM	–	92.2 µM	–	> 100 µM	–	29.6 µM
c1cncc(-c2nc3ccccc3s2)c1	50.7 µM	> 100 µM	74	> 100 µM	> 100 µM	> 100 µM	> 100 µM	> 100 µM	18	> 100 µM	> 100 µM	> 100 µM	> 100	> 100 µM	64700 nM	> 100 µM	> 100	> 100 µM	> 100	> 100 µM

— PubChem BioAssay (NCI)
